# Assay results taken from US9353096B2, “Substituted phenylcarbamate compounds” (Hoffmann-La Roche Inc., priority 2012, dated 2016).
# Counter-ions that a name gives are not always drawn.
# Molecular target: hTRPA1 (Homo sapiens, UniProt O75762)
# Assay: Dose response calcium flux (FLIPR) assay, ChanTest hTRPA1-CHO stably transfected cell line, cinnamaldehyde agonist
# Format: cell-based
# Conditions: CHO-K1 Tet-On hTRPA1 cells, 100 uM cinnamaldehyde agonist, 30 min preincubation
# Description: Dose Response Assay:ChanTest hTRPA1-CHO Stably Transfected Cell Line
# CHO-K1 Tet-On_HOMSA_TRPA1_Clone_20
# Growth Media for CHO-K1 Tet-On_HOMSA_TRPA1_Clone_20 • Ham's F-12 with 10% tetracycline-free FBS • 1× penicillin-streptomycin • 1× glutamax • 0.01 mg/ml Blasticidin • 0.40 mg/ml Zeocin • The cell line doubling rate was ˜15 h. […] Experiments were run at 24 h post induction.
# Plating Conditions CHOK1/TRPA1 Cells: • Harvested cells with 0.025% trypsin/EDTA. • Resuspended cells in growth media without selection antibiotics. • Measured cell density and diluted to 2.4×10^5 cells/ml in media containing 1 ug/ml Doxycycline Plate 25 ul/well into 384 well black/clear tissue culture-treated plates. • Incubated overnight at 37° C.
# Replacement Buffer: Hank's Balanced Salt Solution, 20 mM HEPES along with 0.005% BSA and 2× Probenecid
# Dye Loading Buffer: Cal-3 NW Calcium dye was prepared by dissolving the contents of one vial with […] Hank's Balanced Salt Solution containing 20 mM HEPES.
# AP-18, stock 10 mM, prepare 3.5× compound dilution in a Compound Buffer (HBSS/20 mM HEPES/0.005% BSA)—final concentration 10 uM.
# Preparation of Cinnamaldehyde (Agonist Addition): • FW=132.16 • Specific gravity=1.046 gm/cc • 1.32 gm/1.046 gm/cc=1.26 ml of stock • Add 1.74 ml DMSO=3.3 M stock • Working solution 4.5× (final 100 uM in Compound Buffer: HBSS/20 mM HEPES/0.005% BSA)
# Compounds dilutions were prepared from 5 or 10 mM stock (100% DMSO): • Adjustments of volumes and concentrations were made at time of titration to reflect desired final assay concentrations. • Compounds were tested at either 20 μM three folds dilution 11 steps out or 30 μM two folds dilution 11 steps out. • 3 μl of diluted compound were transferred into Weidmann 384-well plate in duplicates side-by-side. • Compound plates were resuspended with 100 ul of HBSS/20 mM HEPES/0.005% BSA buffer (Compound Buffer): • column 1A-H: buffer/DMSO (bk) • column 2A-H: AP-18 (control antagonist for CHOK1 TRPA1 cells) • column 1I-P: ATP (control for CHOK1 teton cells) • column 2I-P: 2APB (control antagonist for CHOK1/TRPM8 cells).
# Growth media was removed from the cell plates (20 ul) and 20 μl of the Replacement Buffer was added followed by addition of 25 μl of diluted dye. All three steps were performed using a Plate Washer BioTek 407. The plates were then incubated for 30′ at RT.
# After incubation, both the cell and compound plates were brought to the FLIPR and 20 μl of the diluted compounds/antagonist/bk were transferred to the cell plates by the FLIPR. Plates were then incubated for 30′ at room temperature. After 30′ incubation, plates were returned to the FLIPR and 20 μl of 4.5× Cinnamaldehyde was added to the cell plates. During the compound addition as well as agonist addition, fluorescence readings were taken simultaneously from all 384 wells of the cell plate every 1.5 seconds. Five readings were taken to establish a stable baseline, then 20 μl of sample was rapidly (30 ul/sec) and simultaneously added to each well of the cell plate. The fluorescence was continuously monitored before, during and after sample/agonist addition for a total elapsed time of 100 seconds (compound addition) and 120 seconds (agonist addition). Responses (increase in peak fluorescence) in each well following agonist addition was determined. The initial fluorescence reading from each well, prior to ligand stimulation, was used a zero baseline value for the data from that well.
# Chain of hTRPA1 (O75762 whole entry): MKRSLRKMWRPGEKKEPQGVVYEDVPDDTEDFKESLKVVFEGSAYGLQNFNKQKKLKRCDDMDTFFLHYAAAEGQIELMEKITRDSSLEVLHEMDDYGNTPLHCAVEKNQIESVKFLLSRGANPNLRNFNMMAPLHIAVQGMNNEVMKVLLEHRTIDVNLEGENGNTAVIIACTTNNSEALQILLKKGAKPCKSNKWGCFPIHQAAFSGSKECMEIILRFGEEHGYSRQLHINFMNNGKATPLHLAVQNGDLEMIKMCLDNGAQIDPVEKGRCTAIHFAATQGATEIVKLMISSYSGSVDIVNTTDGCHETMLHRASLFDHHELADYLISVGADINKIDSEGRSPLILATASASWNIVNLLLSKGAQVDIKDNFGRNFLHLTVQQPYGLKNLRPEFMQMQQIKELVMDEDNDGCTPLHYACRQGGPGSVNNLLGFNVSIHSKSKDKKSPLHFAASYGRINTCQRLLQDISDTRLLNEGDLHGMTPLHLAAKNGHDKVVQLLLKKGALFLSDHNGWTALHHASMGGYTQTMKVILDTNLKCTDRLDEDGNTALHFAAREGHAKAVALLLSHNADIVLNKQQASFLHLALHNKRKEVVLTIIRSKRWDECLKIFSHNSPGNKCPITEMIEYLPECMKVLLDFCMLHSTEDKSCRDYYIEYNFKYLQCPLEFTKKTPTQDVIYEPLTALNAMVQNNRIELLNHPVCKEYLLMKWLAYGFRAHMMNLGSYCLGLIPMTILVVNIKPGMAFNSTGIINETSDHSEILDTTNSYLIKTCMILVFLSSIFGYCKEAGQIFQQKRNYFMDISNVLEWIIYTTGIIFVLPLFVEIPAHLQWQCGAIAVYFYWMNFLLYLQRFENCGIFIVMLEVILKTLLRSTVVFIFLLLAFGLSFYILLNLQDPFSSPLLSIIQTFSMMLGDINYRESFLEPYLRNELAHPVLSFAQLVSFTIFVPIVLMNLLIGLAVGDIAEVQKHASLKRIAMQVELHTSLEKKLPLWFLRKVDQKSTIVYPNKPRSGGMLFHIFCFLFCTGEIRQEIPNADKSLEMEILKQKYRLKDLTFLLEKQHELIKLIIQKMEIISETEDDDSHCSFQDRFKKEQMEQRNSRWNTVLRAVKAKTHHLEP
row,IC50,SMILES
1,5.58 nM,"O=C(Nc1ccc(Cl)cc1)O[C@@H](CN1CCO[C@H](c2cccc(C(F)(F)F)c2)C1)C(F)(F)F [Example 11, (4-Chlorophenyl)-carbamic acid (S)-2,2,2-trifluoro-1-[(R)-2-(3-trifluoromethylphenyl)-morpholin-4-ylmethyl]-ethyl ester hydrochloride]"
2,846 nM,"CC(C)c1nccc([C@H]2CN(C[C@H](OC(=O)Nc3ccc(Cl)c(F)c3)C(F)(F)F)CCO2)n1 (single isomer, unassigned) [Example 26, hydrochloride]"
3,7.64 nM,"O=C(Nc1ccc(Cl)cc1)O[C@@H](CN1CCO[C@H](c2ccc(C(F)(F)F)cc2)C1)C(F)(F)F [Example 29, (4-Chlorophenyl)-carbamic acid (S)-2,2,2-trifluoro-1-[(R)-2-(4-trifluoromethylphenyl)-morpholin-4-ylmethyl]-ethyl ester hydrochloride]"
4,36.1 nM,"COc1cccc([C@@H]2CN(C[C@H](OC(=O)Nc3ccc(Cl)cc3)C(F)(F)F)CCO2)c1 [Example 14, (4-Chlorophenyl)-carbamic acid (S)-2,2,2-trifluoro-1-[(R)-2-(3-methoxyphenyl)-morpholin-4-ylmethyl]-ethyl ester]"
